Test results: publication PMC2806030, “Inhibition of mammalian S6 kinase by resveratrol suppresses autophagy” (Aging (Albany NY), 2009)

Tests used:
[1] = molecular target: T1, Pim-1 (Homo sapiens, UniProt P11309); test: in vitro kinase screen (Upstate KinaseProfiler), single dose […]; assay type: biochemical
T1 construct: gene PIM1

[2] = molecular target: NLK (Homo sapiens, UniProt Q9UBE8); test: as above; assay type: biochemical
[3] = molecular target: T2, PKCζ(h) (Homo sapiens, UniProt Q05513); test: biochemical; design: Upstate KinaseProfiler in vitro kinase activity assay, per cent of DMSO control; details: read-out: Activity (% of Control)
T2 construct: gene PRKCZ
In short: (§1)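 Profiling done with Upstate KinaseProfiler service across 100 kinases, resveratrol tested at 20 μM; activity expressed relative to control.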

[4] = molecular target: T3, cSRC(h) (Homo sapiens, UniProt P12931); test: biochemical; design: Upstate KinaseProfiler in vitro kinase activity assay, per cent of DMSO control; details: read-out: Activity (% of Control)
T3 construct: gene SRC
T3 sequence (P12931 whole entry): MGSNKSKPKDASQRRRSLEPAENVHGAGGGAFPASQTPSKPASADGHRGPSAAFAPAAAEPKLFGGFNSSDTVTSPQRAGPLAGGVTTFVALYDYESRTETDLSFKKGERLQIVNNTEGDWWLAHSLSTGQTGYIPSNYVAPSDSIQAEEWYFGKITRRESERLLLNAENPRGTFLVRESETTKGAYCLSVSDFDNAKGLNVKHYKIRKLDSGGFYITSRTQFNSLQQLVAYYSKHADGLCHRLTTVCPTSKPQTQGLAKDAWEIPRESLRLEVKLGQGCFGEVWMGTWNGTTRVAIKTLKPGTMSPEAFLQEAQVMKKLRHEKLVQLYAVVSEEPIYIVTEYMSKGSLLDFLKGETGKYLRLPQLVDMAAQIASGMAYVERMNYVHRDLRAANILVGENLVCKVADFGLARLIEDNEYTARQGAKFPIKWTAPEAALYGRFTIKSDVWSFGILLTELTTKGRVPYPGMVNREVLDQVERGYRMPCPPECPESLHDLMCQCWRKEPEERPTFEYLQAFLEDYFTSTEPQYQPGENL
In short: as §1

[5] = molecular target: CDK6/cyclinD3(h) (Homo sapiens, UniProt Q00534); test: biochemical; design: Upstate KinaseProfiler in vitro kinase activity assay, per cent of DMSO control; details: read-out: Activity (% of Control)
In short: as §1

[6] = molecular target: T4, TrkB(h) (Homo sapiens, UniProt Q16620); test: biochemical; design: Upstate KinaseProfiler in vitro kinase activity assay, per cent of DMSO control; details: read-out: Activity (% of Control)
T4 construct: gene NTRK2
T4 sequence (Q16620 whole entry): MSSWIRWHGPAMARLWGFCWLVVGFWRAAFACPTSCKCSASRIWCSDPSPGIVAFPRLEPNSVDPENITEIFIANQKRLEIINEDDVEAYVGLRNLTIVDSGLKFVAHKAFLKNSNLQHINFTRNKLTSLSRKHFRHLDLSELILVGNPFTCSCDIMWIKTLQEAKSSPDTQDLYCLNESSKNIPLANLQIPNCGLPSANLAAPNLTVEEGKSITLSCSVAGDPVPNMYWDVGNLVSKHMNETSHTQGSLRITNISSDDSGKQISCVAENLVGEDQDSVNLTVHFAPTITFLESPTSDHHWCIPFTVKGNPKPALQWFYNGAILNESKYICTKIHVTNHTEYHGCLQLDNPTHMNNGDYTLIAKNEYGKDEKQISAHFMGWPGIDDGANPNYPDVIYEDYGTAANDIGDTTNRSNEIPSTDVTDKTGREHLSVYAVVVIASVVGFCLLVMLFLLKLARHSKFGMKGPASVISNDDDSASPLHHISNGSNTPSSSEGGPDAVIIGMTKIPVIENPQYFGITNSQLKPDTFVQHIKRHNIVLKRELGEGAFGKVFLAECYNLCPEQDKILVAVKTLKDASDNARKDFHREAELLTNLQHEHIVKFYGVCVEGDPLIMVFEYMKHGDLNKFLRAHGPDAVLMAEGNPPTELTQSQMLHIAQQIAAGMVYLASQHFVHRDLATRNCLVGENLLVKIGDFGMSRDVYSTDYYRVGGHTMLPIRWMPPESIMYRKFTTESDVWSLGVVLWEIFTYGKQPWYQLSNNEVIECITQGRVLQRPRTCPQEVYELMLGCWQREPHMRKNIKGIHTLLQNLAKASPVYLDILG
In short: as §1

[7] = molecular target: T5, MSK2(h) (Homo sapiens, UniProt O75676); test: biochemical; design: Upstate KinaseProfiler in vitro kinase activity assay, per cent of DMSO control; details: read-out: Activity (% of Control)
T5 construct: gene RPS6KA4
T5 sequence (O75676 whole entry): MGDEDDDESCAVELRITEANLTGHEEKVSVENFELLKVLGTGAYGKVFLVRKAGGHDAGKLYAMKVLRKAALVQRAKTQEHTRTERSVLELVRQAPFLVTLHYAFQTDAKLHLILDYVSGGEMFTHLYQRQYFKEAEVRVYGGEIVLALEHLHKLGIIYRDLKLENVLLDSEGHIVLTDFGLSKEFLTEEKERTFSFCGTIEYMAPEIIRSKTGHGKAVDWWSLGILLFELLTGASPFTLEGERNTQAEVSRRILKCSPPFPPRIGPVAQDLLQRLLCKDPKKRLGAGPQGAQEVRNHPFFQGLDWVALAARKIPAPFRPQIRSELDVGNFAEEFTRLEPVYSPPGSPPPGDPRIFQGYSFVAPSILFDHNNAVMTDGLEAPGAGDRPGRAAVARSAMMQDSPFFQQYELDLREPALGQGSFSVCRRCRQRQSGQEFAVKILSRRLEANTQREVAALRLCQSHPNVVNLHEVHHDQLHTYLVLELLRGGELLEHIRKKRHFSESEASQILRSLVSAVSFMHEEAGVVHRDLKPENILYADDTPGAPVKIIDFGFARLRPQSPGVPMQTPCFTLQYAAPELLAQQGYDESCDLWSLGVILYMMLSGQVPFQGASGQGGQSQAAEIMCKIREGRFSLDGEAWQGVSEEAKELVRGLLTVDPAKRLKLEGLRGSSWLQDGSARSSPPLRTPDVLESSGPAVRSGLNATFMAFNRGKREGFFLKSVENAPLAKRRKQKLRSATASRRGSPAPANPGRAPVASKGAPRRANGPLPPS
In short: as §1

[8] = molecular target: T6, PKCδ(h) (Homo sapiens, UniProt Q05655); test: biochemical; design: Upstate KinaseProfiler in vitro kinase activity assay, per cent of DMSO control; details: read-out: Activity (% of Control)
T6 construct: gene PRKCD
T6 sequence (Q05655 whole entry): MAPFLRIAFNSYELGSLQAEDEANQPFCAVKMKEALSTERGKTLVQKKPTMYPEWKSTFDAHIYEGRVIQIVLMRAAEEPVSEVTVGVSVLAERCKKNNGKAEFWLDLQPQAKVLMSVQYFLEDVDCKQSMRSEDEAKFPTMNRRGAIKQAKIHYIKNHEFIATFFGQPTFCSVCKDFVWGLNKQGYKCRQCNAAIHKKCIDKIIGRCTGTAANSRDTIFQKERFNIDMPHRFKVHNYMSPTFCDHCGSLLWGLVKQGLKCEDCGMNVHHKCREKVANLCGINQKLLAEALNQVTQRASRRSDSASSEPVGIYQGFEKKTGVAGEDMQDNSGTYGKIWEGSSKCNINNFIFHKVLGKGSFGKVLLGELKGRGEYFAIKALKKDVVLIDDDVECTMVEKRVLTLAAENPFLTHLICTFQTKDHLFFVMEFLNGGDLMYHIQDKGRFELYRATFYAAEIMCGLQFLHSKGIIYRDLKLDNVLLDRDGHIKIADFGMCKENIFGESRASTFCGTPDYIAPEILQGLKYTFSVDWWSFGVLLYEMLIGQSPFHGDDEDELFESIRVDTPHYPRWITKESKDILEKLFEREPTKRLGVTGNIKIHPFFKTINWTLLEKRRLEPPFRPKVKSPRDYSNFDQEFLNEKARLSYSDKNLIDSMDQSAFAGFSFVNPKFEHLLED
In short: as §1

[9] = molecular target: T7, Ros(h) (Homo sapiens, UniProt P08922); test: biochemical; design: Upstate KinaseProfiler in vitro kinase activity assay, per cent of DMSO control; details: read-out: Activity (% of Control)
T7 construct: gene ROS1
In short: as §1

[10] = molecular target: T8, p70 S6 kinase (S6K1) (Rattus norvegicus, UniProt P67999); test: in vitro […] kinase assay with immunoprecipitated HA-S6K1 and GST-S6 substrate; also KinaseProfiler screen at […]; assay type: biochemical
T8 construct: gene Rps6kb1; HA-tagged S6K1 wt immunoprecipitated from HEK293 cells
T8 sequence (P67999 24-525): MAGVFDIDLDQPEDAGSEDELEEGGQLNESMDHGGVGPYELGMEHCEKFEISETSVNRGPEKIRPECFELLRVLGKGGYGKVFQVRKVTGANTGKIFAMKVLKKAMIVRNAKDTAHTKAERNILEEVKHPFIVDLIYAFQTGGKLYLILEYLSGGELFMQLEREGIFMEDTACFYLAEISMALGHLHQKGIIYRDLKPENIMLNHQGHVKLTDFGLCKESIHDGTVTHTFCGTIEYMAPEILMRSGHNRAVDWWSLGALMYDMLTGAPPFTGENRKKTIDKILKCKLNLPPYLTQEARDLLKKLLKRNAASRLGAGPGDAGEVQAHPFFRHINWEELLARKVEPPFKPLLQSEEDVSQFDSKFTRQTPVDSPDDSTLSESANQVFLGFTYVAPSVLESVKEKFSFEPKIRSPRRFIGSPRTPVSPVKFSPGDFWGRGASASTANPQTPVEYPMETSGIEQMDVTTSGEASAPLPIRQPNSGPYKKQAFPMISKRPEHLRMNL

[11] = molecular target: T9, Pim-2 (Homo sapiens, UniProt Q9P1W9); test: in vitro kinase screen (Upstate KinaseProfiler), single dose […]; assay type: biochemical
T9 construct: gene PIM2
T9 sequence (Q9P1W9 whole entry): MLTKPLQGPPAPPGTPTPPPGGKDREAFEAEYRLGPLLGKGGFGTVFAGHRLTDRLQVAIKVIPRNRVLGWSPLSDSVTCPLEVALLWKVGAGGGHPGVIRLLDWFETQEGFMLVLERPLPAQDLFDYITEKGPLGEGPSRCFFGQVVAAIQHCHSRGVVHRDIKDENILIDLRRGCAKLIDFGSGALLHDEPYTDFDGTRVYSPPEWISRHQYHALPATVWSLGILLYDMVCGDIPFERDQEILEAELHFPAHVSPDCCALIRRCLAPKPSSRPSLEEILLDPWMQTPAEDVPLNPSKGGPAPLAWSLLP

T1 sequence (P11309 whole entry): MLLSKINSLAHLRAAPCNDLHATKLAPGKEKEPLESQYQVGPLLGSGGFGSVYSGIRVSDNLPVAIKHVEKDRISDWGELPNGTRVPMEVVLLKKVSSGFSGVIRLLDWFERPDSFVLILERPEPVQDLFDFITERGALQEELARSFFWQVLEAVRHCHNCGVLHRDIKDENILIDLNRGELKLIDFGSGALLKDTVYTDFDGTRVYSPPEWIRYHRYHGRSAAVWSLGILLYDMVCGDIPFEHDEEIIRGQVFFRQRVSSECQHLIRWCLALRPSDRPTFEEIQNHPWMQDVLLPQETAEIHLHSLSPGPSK
Sequence of NLK (Q9UBE8 whole entry): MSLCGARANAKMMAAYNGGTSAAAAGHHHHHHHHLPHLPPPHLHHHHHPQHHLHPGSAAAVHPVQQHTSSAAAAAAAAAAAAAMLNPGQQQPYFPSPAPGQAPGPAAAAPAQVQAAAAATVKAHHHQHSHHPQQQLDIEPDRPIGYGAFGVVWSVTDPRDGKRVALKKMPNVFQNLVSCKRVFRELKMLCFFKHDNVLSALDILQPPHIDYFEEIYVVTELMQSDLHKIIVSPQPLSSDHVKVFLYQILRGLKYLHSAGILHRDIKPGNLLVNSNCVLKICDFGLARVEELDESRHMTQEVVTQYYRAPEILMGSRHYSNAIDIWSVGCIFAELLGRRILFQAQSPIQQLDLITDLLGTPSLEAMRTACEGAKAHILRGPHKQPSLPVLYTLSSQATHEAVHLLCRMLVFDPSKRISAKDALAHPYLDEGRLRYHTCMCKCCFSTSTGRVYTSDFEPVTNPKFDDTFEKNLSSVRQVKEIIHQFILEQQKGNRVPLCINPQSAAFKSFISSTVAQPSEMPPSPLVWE

## Oc1ccc(/C=C/c2cc(O)cc(O)c2)cc1 [Res, resveratrol]
[1]
  in vitro kinase screen (Upstate KinaseProfiler), single dose 20 μM: Jak2, NLK, p70 S6 kinase (S6K1), Pim-1, and Pim-2 emerged as potential targets of resveratrol
[2]
  in vitro kinase screen (Upstate KinaseProfiler), single dose 20 μM: Jak2, NLK, p70 S6 kinase (S6K1), Pim-1, and Pim-2 emerged as potential targets of resveratrol
[3]
  remaining activity at 20 µM: 89%
[4]
  remaining activity at 20 µM: 61 ± 1%
[5]
  remaining activity at 20 µM: 55 ± 2%
[6]
  remaining activity at 20 µM: 98 ± 1%
[7]
  remaining activity at 20 µM: 60 ± 1%
[8]
  remaining activity at 20 µM: 92 ± 1%
[9]
  remaining activity at 20 µM: 102 ± 4%
[10]
  IC50: ~25 µM
[11]
  in vitro kinase screen (Upstate KinaseProfiler), single dose 20 μM: Jak2, NLK, p70 S6 kinase (S6K1), Pim-1, and Pim-2 emerged as potential targets of resveratrol
